Where two headings read alike, the source gives them in different places.
Columns and labels:
HepG-2 = assay: MTT anti-proliferative assay, HepG-2; assay type: cell-based, human
HCT-116 = assay: MTT anti-proliferative assay, HCT-116; assay type: cell-based, human
MCF-7 = assay: MTT anti-proliferative assay, MCF-7; assay type: cell-based, human; conditions: Homo sapiens
[1] = system: HepG-2, HCT-116, and MCF-7; assay: MTT anti-proliferative assay, ranges stated over several cell lines; assay type: cell-based; conditions: Homo sapiens
[2] = Homo sapiens, HepG2, MTT, mean ± SD of three experiments, read-out: IC50 HepG-2
[3] = Homo sapiens, HCT-116, MTT, mean ± SD of three experiments, read-out: IC50 HCT-116
[4] = MCF7, MTT, mean ± SD of three experiments, read-out: IC50 MCF-7
[5] = range over HepG-2, HCT-116 and MCF-7 and over the listed compounds, read-out: IC50 values ranging (all tested cell lines)
[6] = MTT, mean ± SD of three experiments, read-out: IC50 HepG-2
[7] = MTT, mean ± SD of three experiments, read-out: IC50 HCT-116

| IC50 (HCT-116; [3]) [µM] | IC50 (MCF-7; [4]) [µM] | melting point [°C] | IC50 [1, 5] [µM] | IC50 (HCT-116; [7]) [µM] | IC50 ([1]; range over HCT-116 and MCF-7 and over the listed compounds, read-out: IC50 values ranging (HCT-116 and MCF-7)) [µM] | Compound | IC50 (HepG-2; [2]) [µM] | IC50 (HepG-2; Homo sapiens, HepG2, read-out: IC50 HepG-2) [µM] | IC50 (HCT-116; Homo sapiens, HCT-116, read-out: IC50 HCT-116) [µM] | IC50 (MCF-7; MCF7, read-out: IC50 MCF-7) [µM] | IC50 ([1]; read-out: IC50 values ranging (all tested cell lines)) [µM] | IC50 (HepG-2; [6]) [µM] |
| --- | --- | --- | --- | --- | --- | --- | --- | --- | --- | --- | --- | --- |
| 19.7 ± 1.3 | 22.8 ± 1.4 | 145 to 146 |  |  |  | COc1ccc2nc(Cl)c(C3CC(c4ccc(Cl)cc4)=NO3)cc2c1 (stereo not shown) [Compound 11, 5–(2-Chloro-6-methoxyquinolin-3-yl)-3–(4-chlorophenyl)-4,5-dihydroisoxazole] | 20.5 ± 1 |  |  |  |  |  |
| 11.4 ± 0.4 | 15.9 ± 0.6 | 135 to 136 | 10.2 to 17.6 |  |  | COc1ccc2nc(Cl)c(C3CC(c4ccc(Cl)cc4)=NN3C(N)=O)cc2c1 (stereo not shown) [Compound 17, 5–(2-Chloro-6-methoxyquinolin-3-yl)-3–(4-chlorophenyl)-4,5-dihydro-1H-pyrazole-1-carboxamide] | 12.7 ± 0.5 |  |  |  |  |  |
| 28.6 ± 1.7 | 37.3 ± 2.1 | 120 to 121 | 22.4 to 45.5 |  |  | COc1ccc2nc(Cl)c(/C=C/C(=O)c3ccc(N)cc3)cc2c1 [Compound 6, (E)-1–(4-Aminophenyl)-3–(2-chloro-6-methoxyquinolin-3-yl)prop-2-en-1-one] | 32.9 ± 2.1 |  |  |  |  |  |
| 11.9 ± 0.4 | 15.4 ± 0.8 | 176 to 177 | 10.2 to 17.6 |  |  | COc1ccc2nc(Cl)c(-c3cc(-c4cc(OC)c(OC)c(OC)c4)nc(=O)[nH]3)cc2c1 [Compound 34, 6–(2-Chloro-6-methoxyquinolin-3-yl)-4–(3,4,5-trimethoxyphenyl)pyrimidin-2(1H)-one] | 15.3 ± 0.4 |  |  |  |  |  |
| 10.4 ± 0.3 | 13.7 ± 0.8 | 130 to 131 | 10.2 to 17.6 |  |  | COc1ccc2nc(Cl)c(C3CC(c4ccc(N)cc4)=NN3C(N)=O)cc2c1 (stereo not shown) [Compound 18, 3–(4-Aminophenyl)-5–(2-chloro-6-methoxyquinolin-3-yl)-4,5-dihydro-1H-pyrazole-1-carboxamide] | 10.2 ± 0.4 |  |  |  |  |  |
| 15.4 | 25.1 ± 1.2 | 114 to 115 |  | 17.4 ± 1.1 |  | COc1ccc2nc(Cl)c(C3CC(c4cc(OC)c(OC)c(OC)c4)=NN3)cc2c1 (stereo not shown) [Compound 10, 2-Chloro-6-methoxy-3-[3–(3,4,5-trimethoxyphenyl)-4,5-dihydro-1H-pyrazol-5-yl]quinoline] | 17.4 |  |  |  |  | 15.4 ± 0.9 |
| 12.9 | 17 ± 1.2 | 133 to 134 |  | 9.96 ± 0.3 |  | COc1ccc2nc(Cl)c(C3CC(c4cc(OC)c(OC)c(OC)c4)=NO3)cc2c1 (stereo not shown) [Compound 13, 5–(2-Chloro-6-methoxyquinolin-3-yl)-3–(3,4,5-trimethoxyphenyl)-4,5-dihydroisoxazole] | 9.96 |  |  |  |  | 12.9 ± 0.6 |
| 32.7 ± 0.9 | 33.8 ± 1.5 | 175 to 176 | 22.4 to 45.5 |  |  | COc1ccc2nc(Cl)c(-c3cc(-c4ccc(N)cc4)nc(N)n3)cc2c1 [Compound 30, 4–(4-Aminophenyl)-6–(2-chloro-6-methoxyquinolin-3-yl)pyrimidin-2-amine] | 28.5 ± 1.3 |  |  |  |  |  |
| 25.1 ± 1.2 | 16.9 ± 1.2 | 127 to 128 |  |  |  | COc1ccc2nc(Cl)c(/C=C/C(=O)c3cc(OC)c(OC)c(OC)c3)cc2c1 [Compound 7, (E)-3–(2-Chloro-6-methoxyquinolin-3-yl)-1–(3,4,5-trimethoxyphenyl)prop-2-en-1-one] | 23.6 ± 1.3 |  |  |  |  |  |
| 22.4 ± 1.1 | 33.5 ± 2.4 | 118 to 119 | 22.4 to 45.5 |  |  | COc1ccc2nc(Cl)c(C3CC(c4ccc(Cl)cc4)=NN3)cc2c1 (stereo not shown) [Compound 8, 2-Chloro-3-[3–(4-chlorophenyl)-4,5-dihydro-1H-pyrazol-5-yl]-6-methoxyquinoline] | 30.9 ± 1.2 |  |  |  |  |  |
| 16.6 | 20.5 ± 1.1 | 122 to 123 |  | 17.4 ± 1 |  | COc1ccc2nc(Cl)c(C3CC(c4ccc(N)cc4)=NN3)cc2c1 (stereo not shown) [Compound 9, 4-[5–(2-Chloro-6-methoxyquinolin-3-yl)-4,5-dihydro-1H-pyrazol-3-yl]aniline] | 17.4 |  |  |  |  | 16.6 ± 0.8 |
| 11.6 ± 0.9 | 13.6 ± 0.7 | 123 to 124 | 10.2 to 17.6 |  |  | COc1ccc2nc(Cl)c(C3CC(c4ccc(N)cc4)=NN3C(N)=S)cc2c1 (stereo not shown) [Compound 15, 3–(4-Aminophenyl)-5–(2-chloro-6-methoxyquinolin-3-yl)-4,5-dihydro-1H-pyrazole-1-carbothioamide] | 10.2 ± 0.4 |  |  |  |  |  |
| 22.4 ± 0.5 | 24.3 ± 0.9 | 146 to 147 |  |  |  | COc1ccc2nc(Cl)c(-c3cc(-c4ccc(N)cc4)nc(=S)[nH]3)cc2c1 [Compound 27, 4–(4-Aminophenyl)-6–(2-chloro-6-methoxyquinolin-3-yl)pyrimidine-2(1H)-thione] | 16.3 ± 0.4 |  |  |  |  |  |
| 10.5 ± 0.4 | 15.2 ± 0.7 | 162 to 163 |  |  |  | COc1ccc2nc(Cl)c(-c3cc(-c4cc(OC)c(OC)c(OC)c4)nc(N)n3)cc2c1 [Compound 31, 4–(2-Chloro-6-methoxyquinolin-3-yl)-6–(3,4,5-trimethoxyphenyl)pyrimidin-2-amine] | 9.45 ± 0.5 |  |  |  |  |  |
| 9.3 | 13.9 ± 0.3 | 121 to 122 |  | 8.87 ± 0.3 |  | COc1ccc2nc(Cl)c(C3CC(c4cc(OC)c(OC)c(OC)c4)=NN3C(N)=S)cc2c1 (stereo not shown) [Compound 16, 5–(2-Chloro-6-methoxyquinolin-3-yl)-3–(3,4,5-trimethoxyphenyl)-4,5-dihydro-1H-pyrazole-1-carbothioamide] | 8.87 |  |  |  |  | 9.3 ± 0.3 |
| 7.38 ± 0.4 | 9.04 ± 0.5 | 117 to 118 |  |  | 6.48 to 10.3 | COc1ccc2nc(Cl)c(C3CC(c4cc(OC)c(OC)c(OC)c4)=NN3C(N)=O)cc2c1 (stereo not shown) [Compound 19, 5–(2-Chloro-6-methoxyquinolin-3-yl)-3–(3,4,5-trimethoxyphenyl)-4,5-dihydro-1H-pyrazole-1-carboxamide] | 10.9 ± 0.5 |  |  |  |  |  |
| 28.9 ± 1.7 | 32.2 ± 2 | 135 to 136 | 22.4 to 45.5 |  |  | COc1ccc2nc(Cl)c(/C=C/C(=O)c3ccc(Cl)cc3)cc2c1 [Compound 5, (E)-3–(2-Chloro-6-methoxyquinolin-3-yl)-1–(4-chlorophenyl)prop-2-en-1-one] | 29.2 ± 1.9 |  |  |  |  |  |
| 40.5 ± 2.4 | 45.5 ± 2.8 | 127 to 128 | 22.4 to 45.5 |  |  | COc1ccc2nc(Cl)c(C3CC(c4ccc(N)cc4)=NO3)cc2c1 (stereo not shown) [Compound 12, 4-[5–(2-Chloro-6-methoxyquinolin-3-yl)-4,5-dihydroisoxazol-3-yl]aniline] | 35.4 ± 1.8 |  |  |  |  |  |
| 13 ± 0.6 | 17.6 ± 0.8 | 195 to 196 | 10.2 to 17.6 |  |  | COc1ccc2nc(Cl)c(-c3cc(-c4ccc(Cl)cc4)nc(N)n3)cc2c1 [Compound 29, 4–(2-Chloro-6-methoxyquinolin-3-yl)-6–(4-chlorophenyl)pyrimidin-2-amine] | 16.5 ± 0.8 |  |  |  |  |  |

| Compound | IC50 (HCT-116; [3]) [µM] | IC50 (MCF-7; [4]) [µM] | melting point [°C] | IC50 [1, 5] [µM] | IC50 (HCT-116; [7]) [µM] | IC50 ([1]; range over HCT-116 and MCF-7 and over the listed compounds, read-out: IC50 values ranging (HCT-116 and MCF-7)) [µM] | IC50 (HepG-2; [2]) [µM] | IC50 (HepG-2; Homo sapiens, HepG2, read-out: IC50 HepG-2) [µM] | IC50 (HCT-116; Homo sapiens, HCT-116, read-out: IC50 HCT-116) [µM] | IC50 (MCF-7; MCF7, read-out: IC50 MCF-7) [µM] | IC50 ([1]; read-out: IC50 values ranging (all tested cell lines)) [µM] | IC50 (HepG-2; [6]) [µM] |
| --- | --- | --- | --- | --- | --- | --- | --- | --- | --- | --- | --- | --- |
| COc1ccc2nc(Cl)c(C3CC(c4ccc(Cl)cc4)=NN3c3ccc([N+](=O)[O-])cc3[N+](=O)[O-])cc2c1 (stereo not shown) [Compound 23, 2-Chloro-3-[3–(4-chlorophenyl)-1–(2,4-dinitrophenyl)-4,5-dihydro-1H-pyrazol-5-yl]-6-methoxyquinoline] |  |  | 143 to 144 |  |  |  |  | 2.64 ± 0.1 | 1.78 ± 0.1 | 4.48 ± 0.1 | 1.78 to 9.19 |  |

Reference: paper PMC7889231 (Journal of Enzyme Inhibition and Medicinal Chemistry, 2021)
